# Test results published in paper PMC9863901, “CX08005, a Protein Tyrosine Phosphatase 1B Inhibitor, Attenuated Hepatic Lipid Accumulation and Microcirculation Dysfunction Associated with Nonalcoholic Fatty Liver Disease” (Pharmaceuticals, 2023).
# Target: T1, Protein tyrosine phosphatase 1B (PTP1B) (Homo sapiens, UniProt P18031)
# T1 construct: gene PTPN1; recombinant human His-PTP1B protein
# T1 sequence (P18031 1-435): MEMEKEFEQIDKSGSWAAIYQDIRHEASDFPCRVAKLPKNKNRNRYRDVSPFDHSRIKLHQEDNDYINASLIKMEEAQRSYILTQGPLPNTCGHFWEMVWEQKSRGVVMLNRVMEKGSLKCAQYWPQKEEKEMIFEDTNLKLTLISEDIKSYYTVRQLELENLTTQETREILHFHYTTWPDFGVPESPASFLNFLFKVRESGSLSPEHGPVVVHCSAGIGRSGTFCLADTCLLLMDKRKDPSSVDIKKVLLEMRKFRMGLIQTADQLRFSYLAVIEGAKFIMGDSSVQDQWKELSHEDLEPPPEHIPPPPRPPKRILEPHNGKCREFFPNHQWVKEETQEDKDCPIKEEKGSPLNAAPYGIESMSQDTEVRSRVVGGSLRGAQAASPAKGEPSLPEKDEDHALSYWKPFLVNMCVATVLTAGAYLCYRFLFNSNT
# Assay: pNPP phosphatase assay with recombinant His-PTP1B, absorbance at […] nm
# Assay type: biochemical
smiles,measurement,value
CCCCCCCCCCCCCCOc1ccccc1NC(=O)c1ccccc1C(=O)O [CX08005],IC50,750 ± 70 nM
